Like-named read-outs stand apart in the source and are kept apart here.
Key:
PHK = PHK 33P kinase assay; assay type: biochemical
Protocol: (§1) All assays (25.5 μl) were carried out at room temperature (21° C.) and were linear with respect to time and enzyme concentrations under the conditions used. Assays were performed for 30 minutes except assays for LCK and PKB which were performed for 15 minutes using Multidrop Micro reagent dispensers (Thermo Electron Corporation, Waltham, Mass. 02454, USA) in a 96-well format. The concentration of […] [γ-^33P] ATP (800 cpm/pmol) in the assays was one of three concentrations (5, 20 or 50 μM) in order to be at or below Km for ATP for the enzyme. Assays were initiated with MgATP and stopped by addition of 5 μl of 0.5M orthophosphoric acid. Assays were then harvested onto P81 filterplates using a unifilter harvester (PerkinElmer, Boston, Mass. 02118, USA), with a wash buffer of 50 mM orthophosphoric acid. Filterplates were then air dried overnight. 10 μl of Microscint O was added per well prior to counting for radioactivity.
MKK1, JNK/SAPK1c, SAPK2a/p38, SAPK2b/p38β2, SAPK3/p38γ, SAPK4/p38δ, MAPK2/ERK2, MAPKAP-K1β, MAPKAP-K2, MSK1, PRAK, PKA, PKCα, PDK1, SGK, p70S6K, GSK3β, ROCK-II, PRK2, AMPK, CHK1, CHK2, CK2, PHK, LCK, were assayed according to Davies et al., (Davies, S. P., Reddy, H., Caivano, M. and Cohen, P. Biochem. J. 351, 95-105, 2000.
CSK and CDK2/cyclinA, were assayed according to Bain et al. (Bain J, McLauchlan H, Elliott M, Cohen P. Biochem J. 371, 199-204, 2003., except that ATP concentrations were either 5, 20 or 50 micromolar so that they were at or below the Km for ATP. The ATP concentrations used were as follows, 5 μM for assays of MKK1, SAPK3, SAPK4, GSK3β, PRK2 CK2 20 μm for assays of JNK, SAPK2β, MAPKAP-K2, MSK1, PRAK, PKA, […], PDK1, SGK, p70S6K, ROCK-II, CHK1, CHK2, CSK, CDK2, and 50 μM for assays of SAPK2a, MAPK2/ERK2, AMPK, LCK, PHK and MAPKAP-K1β.

Src = Src (Homo sapiens, UniProt P12931); assay: biochemical; details: read-out: Src activity as percentage of control without inhibitor; for remaining activity at 10 µM: inhibitor 10 μM
Protocol: as §1, with “Assays” for “All assays (25.5 μl) were carried out at room temperature (21° C.) and were linear with respect to time and enzyme concentrations under the conditions used. Assays”
The following kinases were assayed against the substrates indicated. Aurora B was assayed against the substrate peptide […] (300 μM), ERK8 and MST-2 were both assayed against MBP (0.33 mg/ml). IKKβ was assayed against the substrate peptide […] (300 μM), JNK3 was assayed against 3 μM ATF2[19-96]. MAPKAP-K3 and PKD1 were both assayed against […] (30 μM), MARK3 was assayed against CHKtide ([…]) substrate peptide (300 μM). MNK1 and MNK2 were both assayed against eIF4E protein (0.5 mg/ml). NEK7 was assayed against […] (300 μM), PIM2 was assayed against […] (300 μM), ΔPH PKBβ-S474D was assayed against Crosstide (30 μM), PLK1 was assayed against […] (300 μM). PRK2 was assayed against Long S6 peptide, […] (30 μM), RSK2 was assayed against […] (30 μM), SRC was assayed against cdc2 peptide, […], (300 μM) and SRPK1 was assayed against peptide […] (300 μM). All enzymes were diluted in 50 mM Tris/HCl pH 7.5, 0.1 mM EGTA, 1 mg/ml BSA, 0.1% β-mercaptoethanol buffer and assayed in an incubation containing 50 mM Tris/HCl pH7.5, 0.1 mM EGTA, 0.1% β-mercaptoethanol, CAMK-1 (5-20 mU) diluted in 50 mM Tris/HCl pH 7.5, 0.1 mM EGTA, 1 mg/ml BSA, 0.1% β-mercaptoethanol is assayed against substrate peptide […] in an incubation containing 50 mM Tris/HCl pH 7.5, 0.1 mM EGTA, 0.5 mM CaCl2, 0.3 μM calmodulin, 0.1% β-mereaptoethanol, 300 μM substrate peptide, 10 mM magnesium acetate and 0.05 mM [^33P-γ-ATP] (500-1000 cpm/pmole). EF2K (5-20 mU) diluted in 50 mM Hepes pH 6.6, 0.1% β-mercaptoethanol, 1 mg/ml BSA is assayed against a substrate peptide […] in an incubation containing 50 mM Hepes pH 6.6, 0.2 mM CaCl2, 0.3 μM Calmodulin, 0.05% b-mercaptoethanol, 300 μM substrate peptide, 10 mM magnesium acetate and 0.05 mM [^33P-γ-ATP] (500-1000 cpm/pmole).

Src, sequence (P12931 whole entry, species assumed): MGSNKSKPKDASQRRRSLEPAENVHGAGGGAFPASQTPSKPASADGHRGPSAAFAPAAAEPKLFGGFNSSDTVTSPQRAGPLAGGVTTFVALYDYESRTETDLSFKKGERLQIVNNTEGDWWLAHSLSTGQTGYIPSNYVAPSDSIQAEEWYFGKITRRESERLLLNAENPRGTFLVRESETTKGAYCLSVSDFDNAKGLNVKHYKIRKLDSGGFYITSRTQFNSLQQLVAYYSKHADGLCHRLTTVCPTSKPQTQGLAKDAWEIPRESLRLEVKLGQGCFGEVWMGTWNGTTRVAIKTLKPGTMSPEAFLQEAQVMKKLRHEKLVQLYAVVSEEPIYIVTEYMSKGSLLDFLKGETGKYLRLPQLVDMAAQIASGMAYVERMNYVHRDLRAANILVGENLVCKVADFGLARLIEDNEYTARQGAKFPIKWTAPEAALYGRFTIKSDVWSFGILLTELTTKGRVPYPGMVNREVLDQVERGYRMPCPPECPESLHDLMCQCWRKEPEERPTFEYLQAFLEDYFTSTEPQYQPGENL

Structure (SMILES)	PHK activity as percentage of control without inhibitor (PHK; inhibitor 1 μM) [%]	PHK activity as percentage of control without inhibitor (PHK; inhibitor 10 μM) [%]	remaining activity at 1 µM (Src; inhibitor 1 μM) [%]	remaining activity at 10 µM (Src) [%]	remaining activity at 1 µM (Src) [%]
COc1ccc2c3c([nH]c2c1)C(C)=NCC3 [Harmaline]	73	88	47	65	
COc1ccc2c(c1)[nH]c1c(C)nccc12 [Harmine]	103	82			108
CC1=NCCc2c1[nH]c1cc(O)ccc21 [Harmalol]	101	63	101	83	
